Here are results for six molecules from ChEMBL document CHEMBL1136918, “Optimization of pyrazole inhibitors of Coactivator Associated Arginine Methyltransferase 1 (CARM1)” (Bioorg Med Chem Lett, 2009).

Data set [1] deals with T1, Histone-arginine methyltransferase CARM1 (Homo sapiens, UniProt Q86X55).
T1 sequence (Q86X55 whole entry): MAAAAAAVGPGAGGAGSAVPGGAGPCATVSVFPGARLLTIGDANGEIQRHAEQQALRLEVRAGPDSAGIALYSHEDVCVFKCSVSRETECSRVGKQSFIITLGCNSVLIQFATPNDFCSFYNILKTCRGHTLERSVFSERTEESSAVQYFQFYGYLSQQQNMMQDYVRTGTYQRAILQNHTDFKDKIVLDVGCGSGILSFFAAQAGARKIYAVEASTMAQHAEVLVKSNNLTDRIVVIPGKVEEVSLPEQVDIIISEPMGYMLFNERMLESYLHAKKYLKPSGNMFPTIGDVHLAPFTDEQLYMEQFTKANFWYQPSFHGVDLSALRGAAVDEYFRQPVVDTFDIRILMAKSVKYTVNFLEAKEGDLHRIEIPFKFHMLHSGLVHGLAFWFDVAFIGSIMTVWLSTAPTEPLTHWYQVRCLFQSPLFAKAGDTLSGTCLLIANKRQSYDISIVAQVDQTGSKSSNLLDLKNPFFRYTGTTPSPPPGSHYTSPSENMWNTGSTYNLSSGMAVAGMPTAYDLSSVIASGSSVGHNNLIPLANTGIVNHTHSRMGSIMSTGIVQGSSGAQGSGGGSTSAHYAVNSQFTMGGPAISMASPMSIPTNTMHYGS
Kind of data set: Inhibition of CARM1 assessed as blockade of histone H3 methylation.

The nature of data set [2]: Membrane permeability by PAMPA. In kind it is ADME. The settings on record: read-out: permeability.
Another data set deals with Cytochrome P450 2C9 (Homo sapiens, UniProt P11712). Briefly: Inhibition of CYP2C9 expressed in human hepatocytes. In kind it is ADME, cell-based, Hepatocyte.
Cytochrome P450 2C9, sequence (P11712 whole entry): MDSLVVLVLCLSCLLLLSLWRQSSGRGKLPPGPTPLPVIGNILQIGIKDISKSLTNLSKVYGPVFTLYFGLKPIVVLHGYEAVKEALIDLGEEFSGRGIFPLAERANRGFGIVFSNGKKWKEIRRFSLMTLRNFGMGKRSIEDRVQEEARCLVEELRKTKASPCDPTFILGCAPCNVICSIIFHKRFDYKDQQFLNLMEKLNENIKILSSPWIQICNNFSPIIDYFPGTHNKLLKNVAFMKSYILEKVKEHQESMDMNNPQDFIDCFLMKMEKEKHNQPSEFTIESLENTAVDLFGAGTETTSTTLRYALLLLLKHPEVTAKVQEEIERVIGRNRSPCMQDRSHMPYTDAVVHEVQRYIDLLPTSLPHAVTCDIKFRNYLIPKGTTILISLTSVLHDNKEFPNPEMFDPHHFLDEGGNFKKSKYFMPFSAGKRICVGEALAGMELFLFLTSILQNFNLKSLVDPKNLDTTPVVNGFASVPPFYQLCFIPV
In the next data set the target is Cytochrome P450 3A4 (Homo sapiens, UniProt P08684). Kind of data set: Inhibition of CYP3A4 expressed in human hepatocytes. In kind it is ADME, cell-based, Hepatocyte.
Cytochrome P450 3A4, sequence (P08684 whole entry): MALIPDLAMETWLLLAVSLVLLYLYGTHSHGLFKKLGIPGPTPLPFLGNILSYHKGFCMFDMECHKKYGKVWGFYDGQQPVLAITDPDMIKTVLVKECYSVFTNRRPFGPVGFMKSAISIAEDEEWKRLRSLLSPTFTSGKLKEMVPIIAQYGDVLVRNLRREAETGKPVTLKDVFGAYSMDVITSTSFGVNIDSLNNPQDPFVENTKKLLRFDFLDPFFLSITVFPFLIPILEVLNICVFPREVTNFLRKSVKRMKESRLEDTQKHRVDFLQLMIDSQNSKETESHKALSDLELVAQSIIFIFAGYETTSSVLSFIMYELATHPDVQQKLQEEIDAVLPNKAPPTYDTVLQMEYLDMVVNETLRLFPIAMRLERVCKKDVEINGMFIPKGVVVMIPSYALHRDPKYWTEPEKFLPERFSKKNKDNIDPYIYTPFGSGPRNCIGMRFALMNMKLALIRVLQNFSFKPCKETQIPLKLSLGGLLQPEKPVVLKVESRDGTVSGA
The nature of data set [3]: Toxicity against human hepatocytes. The class given is cell-based, Hepatocyte.
Another data set has as its target Cytochrome P450 2D6 (Homo sapiens, UniProt P10635). Kind of data set: Inhibition of CYP2D6 expressed in human hepatocytes. The class given is ADME, cell-based, Hepatocyte.
Data set [4] addresses Protein arginine N-methyltransferase 3 (Homo sapiens, UniProt O60678). Kind of data set: Inhibition of PRMT3 by methylation assay.
The target in data set [5] is Protein arginine N-methyltransferase 1 (Homo sapiens, UniProt Q99873). Kind of data set: Inhibition of PRMT1 by methylation assay.
Protein arginine N-methyltransferase 1, sequence (Q99873 whole entry): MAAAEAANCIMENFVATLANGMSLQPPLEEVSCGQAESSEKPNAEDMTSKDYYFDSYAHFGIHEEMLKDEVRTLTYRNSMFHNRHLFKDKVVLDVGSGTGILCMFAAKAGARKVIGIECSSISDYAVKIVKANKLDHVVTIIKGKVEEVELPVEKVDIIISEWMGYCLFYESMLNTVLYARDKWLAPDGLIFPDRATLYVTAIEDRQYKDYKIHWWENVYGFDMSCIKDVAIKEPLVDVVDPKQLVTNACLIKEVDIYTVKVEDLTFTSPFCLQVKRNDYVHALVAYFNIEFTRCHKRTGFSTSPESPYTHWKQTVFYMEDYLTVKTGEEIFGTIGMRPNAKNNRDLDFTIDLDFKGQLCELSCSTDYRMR
The next data set deals with Cytochrome P450 2C19 (Homo sapiens, UniProt P33261). Briefly: Inhibition of CYP2C19 expressed in human hepatocytes. In kind it is ADME, cell-based, Hepatocyte.
Cytochrome P450 2C19, sequence (P33261 whole entry): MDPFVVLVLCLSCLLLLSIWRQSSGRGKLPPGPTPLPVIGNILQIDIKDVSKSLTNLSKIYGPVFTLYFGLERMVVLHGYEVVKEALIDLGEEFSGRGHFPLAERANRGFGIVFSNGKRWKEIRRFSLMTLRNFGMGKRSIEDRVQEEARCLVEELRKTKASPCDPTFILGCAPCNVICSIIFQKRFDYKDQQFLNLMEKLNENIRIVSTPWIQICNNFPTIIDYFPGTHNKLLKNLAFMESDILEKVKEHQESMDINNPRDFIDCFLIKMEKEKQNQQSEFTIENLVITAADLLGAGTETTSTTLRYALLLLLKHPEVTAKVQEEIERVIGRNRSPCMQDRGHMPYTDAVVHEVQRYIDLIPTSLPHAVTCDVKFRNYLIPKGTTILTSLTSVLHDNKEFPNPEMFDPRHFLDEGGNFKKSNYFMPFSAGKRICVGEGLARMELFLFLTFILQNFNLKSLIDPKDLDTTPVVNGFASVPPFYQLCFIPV
Data set [6] is described as follows: Metabolic stability in human microsomes per microgram of protein. The class given is ADME, Microsome.
Data set [7] concerns the target T2, Nuclear receptor subfamily 1 group I member 2 (Homo sapiens, UniProt O75469).
T2 sequence (O75469 whole entry): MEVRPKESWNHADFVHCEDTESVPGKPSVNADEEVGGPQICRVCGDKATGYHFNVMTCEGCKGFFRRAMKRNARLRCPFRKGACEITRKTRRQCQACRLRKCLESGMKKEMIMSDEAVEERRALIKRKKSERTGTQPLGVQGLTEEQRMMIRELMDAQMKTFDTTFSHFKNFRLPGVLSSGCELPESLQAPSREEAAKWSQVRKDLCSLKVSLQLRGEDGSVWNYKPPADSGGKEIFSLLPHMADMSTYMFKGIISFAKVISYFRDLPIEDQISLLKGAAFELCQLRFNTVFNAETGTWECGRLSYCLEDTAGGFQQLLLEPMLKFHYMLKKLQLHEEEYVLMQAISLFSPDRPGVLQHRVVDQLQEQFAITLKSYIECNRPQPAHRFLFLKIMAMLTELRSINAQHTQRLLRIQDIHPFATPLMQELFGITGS
Kind of data set: Inhibition of human PXR.

Protein arginine N-methyltransferase 3, sequence (O60678 whole entry): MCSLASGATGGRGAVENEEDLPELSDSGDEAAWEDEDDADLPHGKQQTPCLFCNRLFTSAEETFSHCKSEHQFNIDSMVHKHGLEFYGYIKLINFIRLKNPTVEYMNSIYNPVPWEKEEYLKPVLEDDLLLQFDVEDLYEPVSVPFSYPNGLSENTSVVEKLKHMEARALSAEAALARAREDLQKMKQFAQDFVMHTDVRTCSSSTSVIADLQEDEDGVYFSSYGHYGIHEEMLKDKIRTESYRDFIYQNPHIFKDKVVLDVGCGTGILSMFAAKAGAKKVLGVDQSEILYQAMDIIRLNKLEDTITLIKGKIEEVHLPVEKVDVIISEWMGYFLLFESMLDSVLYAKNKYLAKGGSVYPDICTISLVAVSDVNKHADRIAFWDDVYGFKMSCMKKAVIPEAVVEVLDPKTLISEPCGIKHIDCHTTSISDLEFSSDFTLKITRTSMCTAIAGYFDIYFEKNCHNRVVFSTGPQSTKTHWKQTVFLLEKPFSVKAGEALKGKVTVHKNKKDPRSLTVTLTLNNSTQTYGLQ
Cytochrome P450 2D6, sequence (P10635 whole entry): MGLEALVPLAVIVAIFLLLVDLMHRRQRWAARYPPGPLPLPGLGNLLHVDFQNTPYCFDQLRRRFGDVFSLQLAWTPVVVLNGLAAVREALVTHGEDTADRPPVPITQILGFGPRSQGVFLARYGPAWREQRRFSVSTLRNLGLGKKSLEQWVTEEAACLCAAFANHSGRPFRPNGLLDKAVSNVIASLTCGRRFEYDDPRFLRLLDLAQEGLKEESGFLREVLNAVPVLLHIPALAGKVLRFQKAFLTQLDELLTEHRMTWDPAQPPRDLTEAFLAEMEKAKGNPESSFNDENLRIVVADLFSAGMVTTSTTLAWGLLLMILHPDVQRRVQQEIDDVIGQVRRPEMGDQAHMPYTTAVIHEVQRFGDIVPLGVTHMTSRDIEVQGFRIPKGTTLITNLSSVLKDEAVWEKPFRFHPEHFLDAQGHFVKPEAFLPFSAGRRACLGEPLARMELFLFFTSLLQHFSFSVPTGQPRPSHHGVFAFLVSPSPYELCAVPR

Turning to `C[C@H](N)CNCc1cccc(-n2nc(C(F)(F)F)cc2-c2nnc(-c3ccccc3)o2)c1`, the IC50 in [1] was greater than 10 µM.

With `C[C@H](N)C(=O)NCc1cccc(-n2nc(C(F)(F)F)cc2C(=O)NCc2ccccc2)c1`, the Papp in data set [2] was less than 1.5 ×10⁻⁶ cm/s.

Regarding `C[C@H](N)C(=O)NCc1cccc(-n2nc(C(F)(F)F)cc2-c2nnc(-c3cccc4ncsc34)o2)c1`, the IC50 on Cytochrome P450 2C9 is greater than 100 µM; against Cytochrome P450 3A4 it was greater than 100 µM; in [3], greater than 100 µM; against Cytochrome P450 2D6, greater than 100 µM; in [4], greater than 25 µM; in data set [5], greater than 25 µM. In addition, the IC50 in data set [1] is 0.04 µM; against Cytochrome P450 2C19, greater than 100 µM. In [6], this molecule showed a Stability of 0.026 nM/min. This molecule showed an EC50 in data set [7] greater than 25 µM. In addition, in [2], the Papp came to 26.7 ×10⁻⁶ cm/s.

Regarding `C[C@H](N)C(=O)NCc1cccc(-n2nc(C(F)(F)F)cc2-c2nnc(-c3ccccc3)o2)c1`, the Papp in data set [2] was found to be 10.6 ×10⁻⁶ cm/s.

`C[C@H](N)C(=O)N(C)Cc1cccc(-n2nc(C(F)(F)F)cc2-c2nnc(-c3ccccc3)o2)c1`: the IC50 in [1] is greater than 10 µM.

Regarding `COc1ccccc1Nc1nnc(-c2cc(C(F)(F)F)nn2-c2cccc(CNC(=O)[C@H](C)N)c2)o1`, in data set [2], the Papp was less than 1.5 ×10⁻⁶ cm/s.
